Experimental data from patent US20240316051A1, “A PHARMACEUTICAL COMBINATION AND USE THEREOF” (Ascentage Pharma (Suzhou) Co., Ltd., priority 2021, published 2024).

Key:
Assay type in all cases: in vivo, mice
[1] = test system: BAP1 mut mesothelioma PDX model; test: BAP1 mut mesothelioma PDX model (Examples 15-17); conditions: orally, once per day, 28 days
Experimental: (§1) A subcutaneous xenograft tumor model of human tumor immunodeficient mice was established by cell inoculation: tumor cells in logarithmic growth phase were collected, counted, resuspended in 1×PBS, and the cell suspension concentration was adjusted to 2.5-5×10^7/mL. The tumor cells were inoculated subcutaneously in the right side of immunodeficient mice with a 1 ml syringe ([…]), 5-10×10^6/0.2 mL/mouse. All animal experiments were strictly in accordance with the specifications for the use and management of experimental animals in GenePharma Co., Ltd. and Suzhou Ascentage Pharma Co., Ltd. The calculation of relevant parameters refers to the Chinese NMPA “Guidelines for Non-Clinical Research Techniques of Cytotoxic Anti-tumor Drugs”.
(§2) Animal body weight and tumor size were measured twice weekly during the experiment. The state of the animal and the presence or absence of death were observed every day. The growth of tumor and the effects of treatment on normal behavior of animals were monitored routinely, specifically involving experimental animal activity, feeding and drinking, weight gain or loss, eyes, clothing hair and other abnormalities. The deaths and clinical symptoms observed during the experiment were recorded in the raw data. All operations for administration and measurement of mouse body weight and tumor volume were performed in a clean bench. According to the requirements of the experimental protocol, after the end of the last administration, plasma and tumor tissues were collected, weighed and photographed. The plasma and tumor samples were frozen at −80° C. for ready-to-use.
(§3) Tumor volume (TV) is calculated as: TV=a×b^2/2, wherein a and b represent the length and width of the tumor to be measured, respectively.
(§4) The relative tumor volume (RTV) is calculated as: RTV=Vt/V1, wherein V1 is the tumor volume at the start of grouping and administration, and Vt is the tumor volume measured on the t day after administration.
(§5) The evaluation index of anti-tumor activity is the relative tumor proliferation rate T/C (%), and the calculation formula thereof is: relative tumor proliferation rate T/C (%)=(TRTV/CRTV)×100%, TRTV is the RTV of treatment group, CRTV is the RTV of solvent control group.
(§6) A dose of drug is considered to be severely toxic if the body weight of mouse is reduced by more than 20% or the number of drug-related deaths exceeds 20%.
(§7) According to the description by Clarke R., Issues in experimental design and endpoint analysis in the study of experimental cytotoxic agents in vivo in breast cancer and other models [J]. Breast Cancer Research & Treatment, 1997, 46(2-3): 255-278, synergy analysis was evaluated using the following formula: synergy factor=((A/C)×(B/C))/(AB/C); A=RTV value of drug A alone group; B=RTV value of drug B alone group; C=RTV value of the solvent control group, and AB=RTV value of the A and B combination group.
In this experiment, a BAP1 mut mesothelioma PDX model (Lide Biotech) was established to evaluate the anti-tumor effect of Compound 73. The dosing regimen was as follows: • Compound 73: 50 mg/kg, orally, once per day, for a total of 28 days; • Compound 73: 100 mg/kg, orally, once per day, for a total of 28 days;
In this experiment, a BAP1 mut mesothelioma PDX model (Lide Biotech) was established to evaluate the anti-tumor effect of Compound 73 in combination with Compound A-1. […]

[2] = test system: BAP1 mut mesothelioma PDX model; test: Subcutaneous BAP1 mut mesothelioma PDX model (Example 21); conditions: Compound 73 100 mg/kg orally once per day, Compound C 50 mg/kg orally every other day, 36 days; alone or combined
Experimental: as §1, §2, §3, §4, §5
(§8) Change of body weight (%)=(measured body weight-body weight at the start of grouping)/body weight at the start of grouping×100%.
as §6
In this experiment, subcutaneous BAP1 mut mesothelioma PDX model was established (Lide Biotech) to evaluate the anti-tumor effect of Compound 73 in combination with Compound C. […]

[3] = test system: 22RV1 prostate xenograft; test: Subcutaneous 22RV1 prostate xenograft model (Example 24)
Experimental: as §1, §2, §3, §4, §5, §8, §6, §7
In this experiment, subcutaneous 22RV1 prostate xenograft model was established to evaluate the anti-tumor effect of Compound 73 in combination with Compound C. The dosing regimen was as follows: • Compound C: 100 mg/kg, orally, every other day, for a total of 28 days; • Compound 73: 100 mg/kg, orally, once per day, for a total of 28 days;
(§9) The dosing regimen of each drug in the dosing regimen for the combination is the same as the dosing regimen for the single drug, for a total of 28 days.

[4] = test system: LnCap prostate xenograft; test: Subcutaneous LnCap prostate xenograft model (Example 25); conditions: day 17
Experimental: as §1, §2, §3, §4, §5, §6, §7
In this experiment, subcutaneous LnCap prostate xenograft model was established to evaluate the anti-tumor effect of Compound 73 in combination with Compound C. The dosing regimen was as follows: • Compound C: 100 mg/kg, orally, every other day, for day 1-day 9; 50 mg/kg, orally, every other day, for day 10-day 28; • Compound 73: 100 mg/kg, orally, once per day, for a total of 28 days;
as §9

SMILES: CC(C)N1Cc2cc(C(F)(F)F)ncc2-c2cnc(NCc3c(F)ccc4c3CCO4)n3cnc(c23)C1=O [Compound 73, 12-(((5-fluoro-2,3-dihydrobenzofuran-4-yl)methyl)amino)-4-isopropyl-7-(trifluoromethyl)-4,5-dihydro-3H-2,4,8,11,12a-pentaazabenzo[4,5]cycloocta[1,2,3-cd]inden-3-one]
- T/C (%) ([1]; Compound 73 50 mg/kg, end of study): 69.7%
- T/C (%) ([1]; Compound 73 100 mg/kg, 100 mg/kg): 60%
- antitumor activity (in words) ([1]; Compound 73 single agent, 50 and 100 mg/kg): dose-dependent antitumor activity
- RTV @ D 36 [2]: 5.43
- T/C (%) @ D 36 [2]: 37.22%
- RTV@ D 26 ([3]; 22RV1 xenograft, day 26, Compound 73 100 mg/kg orally once per day, Compound C 50 mg/kg (table) orally every other day): 7.91 ± 0.74
- T/C(%) @ D 26 ([3]; 22RV1 xenograft, day 26, Compound 73 100 mg/kg, Compound C 50 mg/kg (table)): 49.89%
- RTV@ D 29 ([3]; 22RV1 xenograft, day 29): 9.28 ± 0.61
- RTV@ D 32 ([3]; 22RV1 xenograft, day 32): 11.53 ± 0.68
- T/C value ([3]; day 26, Compound C 100 mg/kg orally every other day, Compound 73 100 mg/kg orally once per day, alone or combined): 49.89%
- RTV@ D 17 ([4]; LnCap xenograft, Compound 73 100 mg/kg orally once per day, Compound C 100 mg/kg/50 mg/kg orally every other day): 4.09 ± 0.75
- T/C(%) @ D 17 ([4]; LnCap xenograft, Compound 73 100 mg/kg, Compound C 100 mg/kg/50 mg/kg): 91.30%
- T/C value ([4]; Compound C 100 mg/kg every other day day 1-9 then 50 mg/kg day 10-28, Compound 73 100 mg/kg once per day, orally, alone or combined): 91.30%
